This passage reports IC50 results from BindingDB's records for doi:10.7270/Q2DV1HSV (Jishou University, 2017).

The test deals with Alpha-glucosidase MAL32 (Saccharomyces cerevisiae (strain ATCC 204508 / S288c), UniProt P38158). Briefly: In Vitro α-Glucosidase Inhibitory Assay. The following applies: pH 6.8; 37 °C. As for the experimental part: The α-glucosidase inhibition assay had been carried out using baker's yeast α-glucosidase (EC 3.2.1.20) and p-nitrophenyl α-d-glucopyranoside. The test compounds were dissolved in DMSO to prepare the required distributing concentration. α-Glucosidase inhibitory activity was assayed by using 0.1 M phosphate buffer (pH 6.8) at 37 °C. The enzyme (0.1 U/mL) in phosphate buffer saline was incubated with various concentrations of test compounds at 37 °C for 15 min. […] After further incubation at 37 °C for 30 min. […] The sample solution was replaced by DMSO as a control. Acarbose was used as a positive control. All experiments were carried out in triplicates.
Sequence of Alpha-glucosidase MAL32 (P38158 whole entry): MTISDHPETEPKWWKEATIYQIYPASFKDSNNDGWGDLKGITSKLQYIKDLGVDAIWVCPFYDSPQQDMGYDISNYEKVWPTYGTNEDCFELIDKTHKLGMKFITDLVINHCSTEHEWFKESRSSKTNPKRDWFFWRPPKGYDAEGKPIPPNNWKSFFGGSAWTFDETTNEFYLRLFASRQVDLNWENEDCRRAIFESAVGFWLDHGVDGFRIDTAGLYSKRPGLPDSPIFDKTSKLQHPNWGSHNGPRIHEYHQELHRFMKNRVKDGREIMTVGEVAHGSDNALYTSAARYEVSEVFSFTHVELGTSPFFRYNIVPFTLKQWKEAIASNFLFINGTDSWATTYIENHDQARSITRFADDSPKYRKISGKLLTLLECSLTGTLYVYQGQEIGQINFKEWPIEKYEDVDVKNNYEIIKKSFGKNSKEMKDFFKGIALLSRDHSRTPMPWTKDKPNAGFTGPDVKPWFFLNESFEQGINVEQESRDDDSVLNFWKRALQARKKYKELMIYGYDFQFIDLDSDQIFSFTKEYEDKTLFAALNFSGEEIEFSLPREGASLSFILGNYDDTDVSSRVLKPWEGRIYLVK

In turn, `O=C1Nc2ccccc2C1(c1cn(Cc2ccccc2)c2ccccc12)c1cn(Cc2ccccc2)c2ccccc12` [1,1''-Dibenzyl-1H,1''H-[3,3':3',3''-terindol]-2'(1'H)-one (4f)] came in with an IC50 of 9.83 µM. To `CCCCn1cc(C2(c3cn(CCCC)c4ccccc34)C(=O)Nc3ccccc32)c2ccccc21` [1,1''-Dibutyl-[3,3':3',3''-terindolin]-2'-one (4m)] belongs 13.6 µM; to `CC(C)Cn1cc(C2(c3cn(CC(C)C)c4ccccc34)C(=O)Nc3ccccc32)c2ccccc21` [1,1''-Diisobutyl-[3,3':3',3''-terindolin]-2'-one (4n)], 14.8 µM. The molecule `CC(C)n1cc(C2(c3cn(C(C)C)c4ccccc34)C(=O)Nc3ccccc32)c2ccccc21` [1,1''-Diisopropyl-[3,3':3',3''-terindolin]-2'-one (4l)] showed a 50% inhibitory concentration (IC50) of 10.3 µM. As to `Cn1cc(C2(c3cn(C)c4ccccc34)C(=O)Nc3ccccc32)c2ccccc21` [1,1''-Dimethyl-1H,1''H-[3,3':3',3''-terindol]-2'(1'H)-one (4e)], half-maximal inhibition (IC50) was put at 13.7 µM. The molecule `CCCn1cc(C2(c3cn(CCC)c4ccccc34)C(=O)Nc3ccccc32)c2ccccc21` [1,1''-Dipropyl-[3,3':3',3''-terindolin]-2'-one (4k)] came in with an IC50 of 11 µM. For the molecule `O=C1Nc2ccccc2C1(c1cn(Cc2ccccc2Cl)c2ccccc12)c1cn(Cc2ccccc2Cl)c2ccccc12` [1,1''-bis(2-Chlorobenzyl)-[3,3':3',3''-terindolin]-2'-one (4i)], the half-inhibitory concentration (IC50) worked out at 7.31 µM. To `O=C1Nc2ccccc2C1(c1cn(Cc2ccccc2F)c2ccccc12)c1cn(Cc2ccccc2F)c2ccccc12` [1,1''-bis(2-Fluorobenzyl)-[3,3':3',3''-terindolin]-2'-one (4j)] belongs 5.98 µM; to `O=C1Nc2ccccc2C1(c1cn(Cc2cccc(F)c2)c2ccccc12)c1cn(Cc2cccc(F)c2)c2ccccc12` [1,1''-bis(3-Fluorobenzyl)-1H,1''H-[3,3':3',3''-terindol]-2'(1'H)-one (4g)], 7.92 µM. For `O=C1Nc2ccccc2C1(c1cn(Cc2ccc(Br)cc2)c2ccccc12)c1cn(Cc2ccc(Br)cc2)c2ccccc12` [1,1''-bis(4-Bromobenzyl)-1H,1''H-[3,3':3',3''-terindol]-2'(1'H)-one (4h)] the value was 9.16 µM. To `O=C1Nc2ccccc2C1(c1c[nH]c2ccccc12)c1c[nH]c2ccccc12` [1H,1''H-[3,3':3',3''-terindol]-2'(1'H)-one (4a)] belongs 146 µM. As for `O=C1Nc2ccc(Br)cc2C1(c1c[nH]c2ccccc12)c1c[nH]c2ccccc12` [5'-Bromo-1H,1''H-[3,3':3',3''-terindol]-2'(1'H)-one (4b)], the 50% inhibitory concentration (IC50) is 20.5 µM.

Take `Cc1ccc2c(c1)C(c1c[nH]c3ccccc13)(c1c[nH]c3ccccc13)C(=O)N2` [5'-Methyl-1H,1''H-[3,3':3',3''-terindol]-2'(1'H)-one (4d)]: the concentration for half-maximal inhibition (IC50) was found to be 30.1 µM.

Usually IC50 stands for the concentration that inhibits the measured activity by half. A low value points to greater potency.
